Test results as given in patent US20220089609A1, “SUBSTITUTED QUINAZOLINONE DERIVATIVES AND THEIR USE AS POSITIVE ALLOSTERIC MODULATORS OF MGLUR4” (DOMAIN THERAPEUTICS, priority 2018, published 2022).
Where “and” joins values, the source holds several entries; their conditions need not be identical. Equal values may be shown once. Where a name gives a salt, the structure may show the parent alone.

Molecular target: T1, human mGluR4 (hmGluR4) (Homo sapiens, UniProt Q14833)
T1 construct: expressed in transfected cells; host or cells: HEK-293 cells, transient co-transfection by electroporation
T1 sequence (Q14833 33-912): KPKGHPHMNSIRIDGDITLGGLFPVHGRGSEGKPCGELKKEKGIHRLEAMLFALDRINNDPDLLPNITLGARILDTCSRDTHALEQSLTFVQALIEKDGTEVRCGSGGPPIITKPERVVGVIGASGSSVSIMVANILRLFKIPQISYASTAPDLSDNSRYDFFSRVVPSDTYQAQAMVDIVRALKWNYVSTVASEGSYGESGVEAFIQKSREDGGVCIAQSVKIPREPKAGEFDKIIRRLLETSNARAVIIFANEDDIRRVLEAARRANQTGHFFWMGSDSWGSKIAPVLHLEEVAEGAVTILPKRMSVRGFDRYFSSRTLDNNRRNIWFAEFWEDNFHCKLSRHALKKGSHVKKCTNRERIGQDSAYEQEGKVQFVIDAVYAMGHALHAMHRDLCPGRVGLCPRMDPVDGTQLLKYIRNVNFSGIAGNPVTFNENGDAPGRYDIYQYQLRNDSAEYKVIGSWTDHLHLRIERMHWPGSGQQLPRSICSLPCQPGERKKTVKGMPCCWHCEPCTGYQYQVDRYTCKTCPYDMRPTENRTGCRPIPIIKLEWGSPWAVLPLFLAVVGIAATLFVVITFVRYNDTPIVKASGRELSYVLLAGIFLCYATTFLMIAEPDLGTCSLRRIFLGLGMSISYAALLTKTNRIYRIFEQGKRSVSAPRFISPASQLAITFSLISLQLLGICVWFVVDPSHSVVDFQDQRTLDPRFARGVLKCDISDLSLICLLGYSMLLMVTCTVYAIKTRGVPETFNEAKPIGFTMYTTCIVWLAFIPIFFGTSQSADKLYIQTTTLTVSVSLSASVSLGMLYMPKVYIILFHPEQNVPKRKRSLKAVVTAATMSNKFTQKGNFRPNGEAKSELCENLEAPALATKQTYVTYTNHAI
Assay: Calcium assay EC50 determination, positive allosteric modulator activity on hmGluR4 transiently over-expressed in HEK-293 cells
Format: cell-based
Conditions: PAM mode with EC20 glutamate; hmGluR4 in HEK-293 cells; intracellular calcium (Fluo4AM); read-out: mGluR4 positive allosteric modulator activity, half maximal effective concentration (EC50)
Protocol: Compounds are tested successively for their agonist and positive allosteric modulator activities on human mGluR4 (hmGluR4) transiently over-expressed in HEK-293 cells. Compounds exert agonist activity if, by themselves in absence of glutamate, they are able to activate hmGluR4; and they exert positive allosteric modulator activity if they increase the action of glutamate.
HEK-293 cells are maintained in Modified Eagle's Medium supplemented with 10% Foetal Calf Serum, 1% Penicillin/Streptomycin and 1% non-essential amino acids at 37° C./5% CO2.
Cells are co-transfected by electroporation with four DNA plasmids encoding hmGluR4, a chimeric G protein allowing redirection of the activation signal to intracellular calcium pathway, and glutamate transporters to decrease extracellular glutamate concentration so as to limit receptor desensitization. After transfection, cells are cultured for 24 h at 37° C./5% CO2.
Calcium Assay EC50 determination
Receptor activity is detected by changes in intracellular calcium measured using the fluorescent Ca^2+ sensitive dye, Fluo4AM (Molecular Probes).
On the day of the assay, culture medium is aspirated and replaced during 3 hours by medium without serum supplemented with 1% Glutamax, 1% Penicillin/Streptomycin and 1% non-essential amino acids. Then, cells are washed with freshly prepared buffer B (HBSS 1× (PAA), Hepes 20 mM, MgSO4-7H2O 1 mM, Na2CO3 3.3 mM, CaCl2-2H2O 1.3 mM, 0.1% BSA, Probenecid 2.5 mM) and loaded at 37° C. in 5% CO2 for 1.5 hours with buffer B containing 1 μM Fluo4AM, 0.1 mg/mL Pluronic Acid, 7 μg/mL Glutamate Pyruvate Transaminase and 2 mM sodium pyruvate. Afterwards cells are washed twice with buffer B. Then cells are detached using StemPro Accutase (Fisher Scientific), resuspended in buffer B and seeded in 384 well plate at a density of 30,000 cells per well. Addition of compounds and intracellular Ca^2+ measurements (excitation 485 nm, emission 525 nm) are performed by the fluorescence microplate reader FLIP^Tetra (Molecular Devices).
Agonist and positive allosteric modulator activities of compounds are consecutively evaluated on the same cell plate. Agonist activity is first tested during 10 minutes with the addition of compound alone on the cells. Then, cells are stimulated by an EC20 glutamate concentration and fluorescence is recorded for additional 3 minutes. EC20 glutamate concentration is the concentration giving 20% of the maximal glutamate response. Agonist or positive allosteric modulator activity(ies) are evaluated in comparison to basal signals evoked by buffer B or EC20 glutamate alone, respectively.

EC50	Structure (SMILES)
100 to 1000 nM	O=c1[nH]c(-c2cc3ccsc3cn2)nc2c(Cl)cc(OCCCc3ccncc3)cc12 [Compound 72, 8-Chloro-6-(3-pyridin-4-yl-propoxy)-2-thieno[2,3-c]pyridin-5-yl-3H-quinazolin-4-one hydrochloride]
1000 to 10000 nM	CCC(=O)N1CCN(c2ccc3nc(-c4cc(C(F)(F)F)ccn4)[nH]c(=O)c3c2)CC1 [Compound 54, 6-(4-Propionyl-piperazin-1-yl)-2-(4-trifluoromethyl-pyridin-2-yl)-3H-quinazolin-4-one]
≤ 100 nM	Cc1cc(OCCC2CCOC2)cc2c(=O)[nH]c(-c3cc4ccsc4cn3)nc12 (centres unmarked) [Compound 78, 8-Methyl-6-[2-(tetrahydro-furan-3-yl)-ethoxy]-2-thieno[2,3-c]pyridin-5-yl-3H-quinazolin-4-one]
≤ 100 nM	Cc1cc(OCC2CCN(C3COC3)CC2)cc2c(=O)[nH]c(-c3cc4ccsc4cn3)nc12 [Compound 86, 8-Methyl-6-(1-oxetan-3-yl-piperidin-4-ylmethoxy)-2-thieno[2,3-c]pyridin-5-yl-3H-quinazolin-4-one]
≤ 100 nM	Cc1cc(OC[C@@H]2CCOC2)cc2c(=O)[nH]c(-c3cc4ccsc4cn3)nc12 [Compound 80-R, R-8-Methyl-6-(tetrahydro-furan-3-ylmethoxy)-2-thieno[2,3-c]pyridin-5-yl-3H-quinazolin-4-one]
≤ 100 nM	Cc1cc(N2CCC3(CC2)COC3)cc2c(=O)[nH]c(-c3cc4ccsc4cn3)nc12 [Compound 89, 8-Methyl-6-(2-oxa-7-aza-spiro[3.5]non-7-yl)-2-thieno[2,3-c]pyridin-5-yl-3H-quinazolin-4-one]
100 to 1000 nM	Cc1cc(CCN2CCCOCC2)cc2c(=O)[nH]c(-c3cnc4sccc4c3)nc12 [Compound 121, 8-Methyl-6-(2-[1,4]oxazepan-4-yl-ethyl)-2-thieno[2,3-b]pyridin-5-yl-3H-quinazolin-4-one hydrochloride]
100 to 1000 nM	Cc1ccnc(-c2nc3ccc(OCCCc4ccncc4)cc3c(=O)[nH]2)c1 [Compound 11, 2-(4-methyl-2-pyridyl)-6-[3-(4-pyridyl)propoxy]-3H-quinazolin-4-one dihydrochloride]
≤ 100 nM	Cc1cc(CC(=O)N2CCOCC2)cc2c(=O)[nH]c(-c3cc4sccc4cn3)nc12 [Compound 126, 8-Methyl-6-(2-morpholino-2-oxoethyl)-2-(thieno[3,2-c]pyridin-6-yl)quinazolin-4(3H)-one]
100 to 1000 nM	O=c1[nH]c(-c2cc(C(F)(F)F)ccn2)nc2cnc(OCCCc3ccncc3)cc12 [Compound 69, 6-(3-Pyridin-4-yl-propoxy)-2-(4-trifluoromethyl-pyridin-2-yl)-3H-pyrido[3,4-d]pyrimidin-4-one hydrochloride]
1000 to 10000 nM	Cc1cnc(-c2nc3ccc(OCCCc4ccncc4)cc3c(=O)[nH]2)cn1 [Compound 13, 2-(5-methylpyrazin-2-yl)-6-[3-(4-pyridyl)propoxy]-3H-quinazolin-4-one dihydrochloride]
100 to 1000 nM	O=c1[nH]c(-c2cc(C3CC3)ccn2)nc2ccc(OCCCc3ccncc3)cc12 [Compound 19, 2-(4-cyclopropyl-2-pyridyl)-6-[3-(4-pyridyl)propoxy]-3H-quinazolin-4-one dihydrochioride]
100 to 1000 nM	O=c1[nH]c(-c2cc3sccc3cn2)nc2ccc(OCCc3cccnc3)cc12 [Compound 23, 6-(2-Pyridin-3-yl-ethoxy)-2-thieno[3,2-c]pyridin-6-yl-3H-quinazolin-4-one hydrochloride]
≤ 100 nM	Cc1cc(N2CC3(CCOC3)C2)cc2c(=O)[nH]c(-c3cc4ccsc4cn3)nc12 [Compound 90, 8-Methyl-6-(6-oxa-2-aza-spiro[3.4]oct-2-yl)-2-thieno[2,3-c]pyridin-5-yl-3H-quinazolin-4-one]
100 to 1000 nM	Cc1cc(OCCC2COC2)cc2c(=O)[nH]c(-c3cc4ccsc4cn3)nc12 [Compound 77, 8-Methyl-6-(2-oxetan-3-yl-ethoxy)-2-thieno[2,3-c]pyridin-5-yl-3H-quinazolin-4-one]
> 10000 nM	O=c1[nH]c(-c2cc3sccc3cn2)nc2ccc(OCc3ccc(Br)cc3)cc12 [Compound 24, 6-(4-Bromo-benzyloxy)-2-thieno[3,2-c]pyridin-6-yl-3H-quinazolin-4-one]

EC50	Structure (SMILES)
≤ 100 nM	Cc1cc(CN2CCOCC2)cc2c(=O)[nH]c(-c3cc(C(F)(F)F)ccn3)nc12 [Compound 115, 8-methyl-6-(morpholinomethyl)-2-[4-(trifluoromethyl)-2-pyridyl]-3H-quinazolin-4-one hydrochloride]
≤ 100 nM	COC1CCN(Cc2cc(C)c3nc(-c4cc5sccc5cn4)[nH]c(=O)c3c2)CC1 [Compound 152, 6-[(4-Methoxy-1-piperidyl)methyl]-8-methyl-2-thieno[3,2-c]pyridin-6-yl-3H-quinazolin-4-one hydrochloride]
100 to 1000 nM	Cc1cc(O[C@H](C)C2CCOCC2)cc2c(=O)[nH]c(-c3cc(C(F)(F)F)ccn3)nc12 [Compound 111-R, R-8-Methyl-6-[1-(tetrahydro-pyran-4-yl)-ethoxy]-2-(4-trifluoromethyl-pyridin-2-yl)-3H-quinazolin-4-one]
1000 to 10000 nM	O=c1[nH]c(-c2cc(C(F)(F)F)c(Cl)cn2)nc2ccc(OCCCc3ccncc3)cc12 [Compound 14, 2-[5-chloro-4-(trifluoromethyl)-2-pyridyl]-6-[3-(4-pyridyl)propoxy]-3H-quinazolin-4-one hydrochloride]
100 to 1000 nM	O=c1[nH]c(-c2cc3ccsc3cn2)nc2ccc(OCCCc3ccncc3F)cc12 [Compound 59, 6-[3-(3-Fluoro-pyridin-4-yl)-propoxy]-2-thieno[2,3-c]pyridin-5-yl-3H-quinazolin-4-one]
100 to 1000 nM and < 1000 nM	O=c1[nH]c(-c2cc(Cl)ccn2)nc2ccc(OCCCc3ccncc3)cc12 [Compound 15, 2-(4-chloro-2-pyridyl)-6-[3-(4-pyridyl)propoxy]-3H-quinazolin-4-one hydrochloride]
≤ 100 nM	Cc1cc(CCN2CCOCC2)cc2c(=O)[nH]c(-c3cc4cccn4cn3)nc12 [Compound 124, 8-Methyl-6-(2-morpholin-4-yl-ethyl)-2-pyrrolo[1,2-c]pyrimidin-3-yl-3H-quinazolin-4-one hydrochloride]
≤ 100 nM	Cc1cc(N2CCC3(CCCOC3)C2)cc2c(=O)[nH]c(-c3cc4ccsc4cn3)nc12 (centres unmarked) [Compound 92, 8-Methyl-6-(7-oxa-2-aza-spiro[4.5]dec-2-yl)-2-thieno[2,3-c]pyridin-5-yl-3H-quinazolin-4-one]
≤ 100 nM	CC(=O)N1CCCC(CCOc2cc(C)c3nc(-c4cc5ccsc5cn4)[nH]c(=O)c3c2)C1 (centres unmarked) [Compound 96, 6-[2-(1-Acetyl-piperidin-3-yl)-ethoxy]-8-methyl-2-thieno[2,3-c]pyridin-5-yl-3H-quinazolin-4-one]
100 to 1000 nM	Cc1cc(CCCOc2ccc3nc(-c4cc5ccsc5cn4)[nH]c(=O)c3c2)ccn1 [Compound 63, 6-[3-(2-Methyl-pyridin-4-yl)-propoxy]-2-thieno[2,3-c]pyridin-5-yl-3H-quinazolin-4-one hydrochloride]
> 10000 nM	CC(=O)N1CCC(Oc2ccc3nc(-c4ccccn4)[nH]c(=O)c3c2)CC1 [Compound 41, 6-(1-Acetyl-piperidin-4-yloxy)-2-pyridin-2-yl-3H-quinazolin-4-one]
≤ 100 nM	Cc1cc(OCC2CCOCC2)cc2c(=O)[nH]c(-c3cc4ccsc4cn3)nc12 [Compound 76, 8-Methyl-6-(tetrahydro-pyran-4-ylmethoxy)-2-thieno[2,3-c]pyridin-5-yl-3H-quinazolin-4-one]
100 to 1000 nM	Cl.O=c1[nH]c(-c2cc3ccsc3cn2)nc2ccc(OCCCc3ccncc3)cc12 [Compound 4, hydrochloride]
100 to 1000 nM	Cc1cc(OCCC2CCOCC2)cc2c(=O)[nH]c(-c3cc4ccsc4cn3)nc12 [Compound 79, 8-Methyl-6-[2-(tetrahydro-pyran-4-yl)-ethoxy]-2-thieno[2,3-c]pyridin-5-yl-3H-quinazolin-4-one]
1000 to 10000 nM	Cc1cc(CN2CCN(C)CC2)cc2c(=O)[nH]c(-c3cc4ccsc4cn3)nc12 [Compound 132, 8-Methyl-6-[(4-methylpiperazin-1-yl)methyl]-2-thieno[2,3-c]pyridin-5-yl-3H-quinazolin-4-one dihydrochloride]
> 10000 nM	O=c1[nH]c(-c2cc3ccsc3cn2)nc2ccc(OCCCc3ccncc3)c(Cl)c12 [Compound 71, 5-Chloro-6-(3-pyridin-4-yl-propoxy)-2-thieno[2,3-c]pyridin-5-yl-3H-quinazolin-4-one hydrochloride]
